From patent US6355799B1, “Substituted benzene compounds, process for their preparation, and herbicidal and defoliant compositions containing them” (ISK Americas Incorporated, priority 1997, dated 2002)

Columns and labels:
Type in all cases: in vivo
[1] = tested on: field corn (Zea mays L., var. Dekalb 535, CORN); experiment: Pre-emerge test, crop safety; details: crop damage, pre-emerge, phytotoxicity rating 0-100 at 14 days after application
Summary of the method: (§1)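 Fourteen days after spraying, crop and weed injury was graded visually from 0, no effect, to 100, every plant dead. Test substances were dissolved in acetone and applied at 15–1000 g ai/ha with a flat-fan nozzle. Application was either pre-emergence, one day after sowing, or post-emergence at the 2–3 leaf stage.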

[2] = tested on: upland rice (Oryza sp., var. Tebonnet, RICE); experiment: Pre-emerge test, crop safety; details: crop damage, pre-emerge, phytotoxicity rating 0-100 at 14 days after application
Summary of the method: as §1

[3] = tested on: field corn (Zea mays L., var. Dekalb 535, CORN); experiment: Post-emerge test, crop safety; details: post-emerge, crop damage rating 0-100 at 14 days after application
Summary of the method: (§2)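 Applied at 15–1000 g ai/ha from acetone in 187 l/ha spray volume. Post-emergence applications included 0.25% v/v non-ionic surfactant and reached plants sown 8–21 days before. Pre-emergence applications were incorporated by surface watering. Efficacy or crop damage was rated on a 0–100 scale after 14 days.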

[4] = tested on: upland rice (Oryza sp., var. Tebonnet, RICE); experiment: Post-emerge test, crop safety; details: post-emerge, crop damage rating 0-100 at 14 days after application
Summary of the method: as §2

[5] = tested on: redroot pigweed (Amaranthus retroflexus, AMARE); experiment: Pre-emerge test, greenhouse herbicide activity screening; details: pre-emerge, phytotoxicity rating 0-100 at 14 days after application
Summary of the method: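 Plants grown in 10 cm pots of sandy loam mix received acetone-dissolved compounds through a moving flat-fan nozzle. Doses ranged from 15 to 1000 g ai/ha. Pre-emerge pots were seeded one day earlier, post-emerge pots 8–21 days earlier. Fourteen days on, each pot was graded 0–100 for damage.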

[6] = tested on: johnsongrass (Sorghum halepense, SORHA); experiment: as above; details: pre-emerge, phytotoxicity rating 0-100 at 14 days after application
Summary of the method: as §2

[7] = tested on: large crabgrass (Digitaria sanguinalis, DIGSA); experiment: as above; details: pre-emerge, phytotoxicity rating 0-100 at 14 days after application
Summary of the method: as §2

[8] = tested on: velvetleaf (Abutilon theophrasti, ABUTH); experiment: as above; details: pre-emerge, phytotoxicity rating 0-100 at 14 days after application
Summary of the method: as §2

[9] = tested on: green foxtail (Setaria viridis, SETVI); experiment: as above; details: pre-emerge, phytotoxicity rating 0-100 at 14 days after application
Summary of the method: as §2

[10] = tested on: sicklepod (Cassia obtusifolia, CASOB); experiment: as above; details: pre-emerge, phytotoxicity rating 0-100 at 14 days after application
Summary of the method: as §2

[11] = tested on: barnyardgrass (Echinochloa crus-galli, ECHCG); experiment: as above; details: pre-emerge, phytotoxicity rating 0-100 at 14 days after application
Summary of the method: as §2

[12] = tested on: ivyleaf morningglory (Ipomoea hederacea, IPOHE); experiment: as above; details: pre-emerge, phytotoxicity rating 0-100 at 14 days after application
Summary of the method: as §2

[13] = tested on: lambsquarters (Chenopodium album, CHEAL); experiment: as above; details: pre-emerge, phytotoxicity rating 0-100 at 14 days after application
Summary of the method: as §2

[14] = tested on: johnsongrass (Sorghum halepense, SORHA); experiment: Post-emerge test, greenhouse herbicide activity screening; details: post-emerge, phytotoxicity rating 0-100 at 14 days after application
Summary of the method: as §2

[15] = tested on: redroot pigweed (Amaranthus retroflexus, AMARE); experiment: as above; details: post-emerge, phytotoxicity rating 0-100 at 14 days after application
Summary of the method: as §2

[16] = tested on: large crabgrass (Digitaria sanguinalis, DIGSA); experiment: as above; details: post-emerge, phytotoxicity rating 0-100 at 14 days after application
Summary of the method: as §2

[17] = tested on: velvetleaf (Abutilon theophrasti, ABUTH); experiment: as above; details: post-emerge, phytotoxicity rating 0-100 at 14 days after application
Summary of the method: as §2

[18] = tested on: green foxtail (Setaria viridis, SETVI); experiment: as above; details: post-emerge, phytotoxicity rating 0-100 at 14 days after application
Summary of the method: as §2

[19] = tested on: sicklepod (Cassia obtusifolia, CASOB); experiment: as above; details: post-emerge, phytotoxicity rating 0-100 at 14 days after application
Summary of the method: as §2

[20] = tested on: barnyardgrass (Echinochloa crus-galli, ECHCG); experiment: as above; details: post-emerge, phytotoxicity rating 0-100 at 14 days after application
Summary of the method: as §2

[21] = tested on: ivyleaf morningglory (Ipomoea hederacea, IPOHE); experiment: as above; details: post-emerge, phytotoxicity rating 0-100 at 14 days after application
Summary of the method: as §2

[22] = tested on: lambsquarters (Chenopodium album, CHEAL); experiment: as above; details: post-emerge, phytotoxicity rating 0-100 at 14 days after application
Summary of the method: as §2

## C#CCOc1c(Cl)cc(F)c(N2C(=O)C3=C(CCCC3)C2=O)c1N [Compound 8-3, N-(2-amino-4-chloro-6-fluoro-3-propargyloxyphenyl)tetrahydrophthalimide]
[1]; rate 63 g ai/ha
  Pre-emerge Herbicidal Activity CORN: 10
[1]; rate 250 g ai/ha
  Pre-emerge Herbicidal Activity CORN: 0
[2]; rate 63 g ai/ha
  Pre-emerge Herbicidal Activity RICE: 0
[2]; rate 250 g ai/ha
  Pre-emerge Herbicidal Activity RICE: 0
[3]; 63 g ai/ha
  Post-emerge Herbicidal Activity CORN: 0
[3]; 250 g ai/ha
  Post-emerge Herbicidal Activity CORN: 0
[4]; 63 g ai/ha
  Post-emerge Herbicidal Activity RICE: 20
[4]; 250 g ai/ha
  Post-emerge Herbicidal Activity RICE: 80
[5]; rate 63 g ai/ha
  Pre-emerge Herbicidal Activity AMARE: 99
[5]; rate 250 g ai/ha
  Pre-emerge Herbicidal Activity AMARE: 100
[6]; rate 63 g ai/ha
  Pre-emerge Herbicidal Activity SORHA: 20
[6]; rate 250 g ai/ha
  Pre-emerge Herbicidal Activity SORHA: 30
[7]; rate 63 g ai/ha
  Pre-emerge Herbicidal Activity DIGSA: 30
[7]; rate 250 g ai/ha
  Pre-emerge Herbicidal Activity DIGSA: 60
[8]; rate 63 g ai/ha
  Pre-emerge Herbicidal Activity ABUTH: 98
[8]; rate 250 g ai/ha
  Pre-emerge Herbicidal Activity ABUTH: 100
[9]; rate 63 g ai/ha
  Pre-emerge Herbicidal Activity SETVI: 95
[9]; rate 250 g ai/ha
  Pre-emerge Herbicidal Activity SETVI: 98
[10]; rate 63 g ai/ha
  Pre-emerge Herbicidal Activity CASOB: 30
[10]; rate 250 g ai/ha
  Pre-emerge Herbicidal Activity CASOB: 50
[11]; rate 63 g ai/ha
  Pre-emerge Herbicidal Activity ECHCG: 0
[11]; rate 250 g ai/ha
  Pre-emerge Herbicidal Activity ECHCG: 10
[12]; rate 63 g ai/ha
  Pre-emerge Herbicidal Activity IPOHE: 30
[12]; rate 250 g ai/ha
  Pre-emerge Herbicidal Activity IPOHE: 10
[13]; rate 63 g ai/ha
  Pre-emerge Herbicidal Activity CHEAL: 99
[13]; rate 250 g ai/ha
  Pre-emerge Herbicidal Activity CHEAL: 100
[14]; 63 g ai/ha
  Post-emerge Herbicidal Activity SORHA: 0
[14]; 250 g ai/ha
  Post-emerge Herbicidal Activity SORHA: 20
[15]; 63 g ai/ha
  Post-emerge Herbicidal Activity AMARE: 90
[15]; 250 g ai/ha
  Post-emerge Herbicidal Activity AMARE: 100
[16]; 63 g ai/ha
  Post-emerge Herbicidal Activity DIGSA: 0
[16]; 250 g ai/ha
  Post-emerge Herbicidal Activity DIGSA: 0
[17]; 63 g ai/ha
  Post-emerge Herbicidal Activity ABUTH: 90
[17]; 250 g ai/ha
  Post-emerge Herbicidal Activity ABUTH: 100
[18]; 63 g ai/ha
  Post-emerge Herbicidal Activity SETVI: 0
[18]; 250 g ai/ha
  Post-emerge Herbicidal Activity SETVI: 70
[19]; 63 g ai/ha
  Post-emerge Herbicidal Activity CASOB: 0
[19]; 250 g ai/ha
  Post-emerge Herbicidal Activity CASOB: 50
[20]; 63 g ai/ha
  Post-emerge Herbicidal Activity ECHCG: 0
[20]; 250 g ai/ha
  Post-emerge Herbicidal Activity ECHCG: 0
[21]; 63 g ai/ha
  Post-emerge Herbicidal Activity IPOHE: 40
[21]; 250 g ai/ha
  Post-emerge Herbicidal Activity IPOHE: 60
[22]; 63 g ai/ha
  Post-emerge Herbicidal Activity CHEAL: 70
[22]; 250 g ai/ha
  Post-emerge Herbicidal Activity CHEAL: 90

## Nc1c(OC2CCCC2)c(Cl)cc(F)c1N1C(=O)C2=C(CCCC2)C1=O [Compound 8-5, N-(2-amino-4-chloro-3-cyclopentyloxy-6-fluorophenyl)tetrahydrophthalimide]
[1]; rate 63 g ai/ha
  Pre-emerge Herbicidal Activity CORN: 0
[1]; rate 250 g ai/ha
  Pre-emerge Herbicidal Activity CORN: 0
[2]; rate 63 g ai/ha
  Pre-emerge Herbicidal Activity RICE: 0
[2]; rate 250 g ai/ha
  Pre-emerge Herbicidal Activity RICE: 0
[3]; 63 g ai/ha
  Post-emerge Herbicidal Activity CORN: 0
[3]; 250 g ai/ha
  Post-emerge Herbicidal Activity CORN: 0
[4]; 63 g ai/ha
  Post-emerge Herbicidal Activity RICE: 40
[4]; 250 g ai/ha
  Post-emerge Herbicidal Activity RICE: 50
[5]; rate 63 g ai/ha
  Pre-emerge Herbicidal Activity AMARE: 40
[5]; rate 250 g ai/ha
  Pre-emerge Herbicidal Activity AMARE: 95
[6]; rate 63 g ai/ha
  Pre-emerge Herbicidal Activity SORHA: 0
[6]; rate 250 g ai/ha
  Pre-emerge Herbicidal Activity SORHA: 20
[7]; rate 63 g ai/ha
  Pre-emerge Herbicidal Activity DIGSA: 0
[7]; rate 250 g ai/ha
  Pre-emerge Herbicidal Activity DIGSA: 0
[8]; rate 63 g ai/ha
  Pre-emerge Herbicidal Activity ABUTH: 0
[8]; rate 250 g ai/ha
  Pre-emerge Herbicidal Activity ABUTH: 70
[9]; rate 63 g ai/ha
  Pre-emerge Herbicidal Activity SETVI: 70
[9]; rate 250 g ai/ha
  Pre-emerge Herbicidal Activity SETVI: 90
[10]; rate 63 g ai/ha
  Pre-emerge Herbicidal Activity CASOB: 0
[10]; rate 250 g ai/ha
  Pre-emerge Herbicidal Activity CASOB: 40
[11]; rate 63 g ai/ha
  Pre-emerge Herbicidal Activity ECHCG: 0
[11]; rate 250 g ai/ha
  Pre-emerge Herbicidal Activity ECHCG: 0
[12]; rate 63 g ai/ha
  Pre-emerge Herbicidal Activity IPOHE: 0
[12]; rate 250 g ai/ha
  Pre-emerge Herbicidal Activity IPOHE: 0
[13]; rate 63 g ai/ha
  Pre-emerge Herbicidal Activity CHEAL: 0
[13]; rate 250 g ai/ha
  Pre-emerge Herbicidal Activity CHEAL: 80
[14]; 63 g ai/ha
  Post-emerge Herbicidal Activity SORHA: 0
[14]; 250 g ai/ha
  Post-emerge Herbicidal Activity SORHA: 0
[15]; 63 g ai/ha
  Post-emerge Herbicidal Activity AMARE: 40
[15]; 250 g ai/ha
  Post-emerge Herbicidal Activity AMARE: 100
[16]; 63 g ai/ha
  Post-emerge Herbicidal Activity DIGSA: 0
[16]; 250 g ai/ha
  Post-emerge Herbicidal Activity DIGSA: 0
[17]; 63 g ai/ha
  Post-emerge Herbicidal Activity ABUTH: 70
[17]; 250 g ai/ha
  Post-emerge Herbicidal Activity ABUTH: 90
[18]; 63 g ai/ha
  Post-emerge Herbicidal Activity SETVI: 0
[18]; 250 g ai/ha
  Post-emerge Herbicidal Activity SETVI: 20
[19]; 63 g ai/ha
  Post-emerge Herbicidal Activity CASOB: 0
[19]; 250 g ai/ha
  Post-emerge Herbicidal Activity CASOB: 10
[20]; 63 g ai/ha
  Post-emerge Herbicidal Activity ECHCG: 0
[20]; 250 g ai/ha
  Post-emerge Herbicidal Activity ECHCG: 0
[21]; 63 g ai/ha
  Post-emerge Herbicidal Activity IPOHE: 0
[21]; 250 g ai/ha
  Post-emerge Herbicidal Activity IPOHE: 40
[22]; 63 g ai/ha
  Post-emerge Herbicidal Activity CHEAL: 70
[22]; 250 g ai/ha
  Post-emerge Herbicidal Activity CHEAL: 70
